The target in test [1] is Chymotrypsinogen A (Bos taurus, UniProt P00766). Nature of the test: Inhibition of bovine pancreas alpha-chymotrypsin preincubated for 10 mins by spectrophotometry.
Test [2] addresses Chymotrypsin-like elastase family member 1 (Sus scrofa, UniProt P00772). Nature of the test: Inhibition of pig pancreatic elastase preincubated for 15 mins by spectrophotometry.
The target of test [3] is Trypsin (Sus scrofa) (UniProt P00761). Kind of test: Inhibition of pig pancreas trypsin at 10 uM preincubated for 10 mins by spectrophotometry.
Trypsin (Sus scrofa), sequence (P00761 whole entry): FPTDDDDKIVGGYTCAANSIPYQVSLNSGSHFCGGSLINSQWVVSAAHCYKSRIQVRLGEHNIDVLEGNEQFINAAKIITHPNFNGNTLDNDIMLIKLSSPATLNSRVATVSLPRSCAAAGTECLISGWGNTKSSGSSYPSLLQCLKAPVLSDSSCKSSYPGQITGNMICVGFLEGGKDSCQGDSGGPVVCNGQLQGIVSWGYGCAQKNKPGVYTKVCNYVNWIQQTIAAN

The source made the active and inactive calls. No cut-off for these calls is given here.

Chymotrypsin-like elastase family member 1, sequence (P00772 whole entry): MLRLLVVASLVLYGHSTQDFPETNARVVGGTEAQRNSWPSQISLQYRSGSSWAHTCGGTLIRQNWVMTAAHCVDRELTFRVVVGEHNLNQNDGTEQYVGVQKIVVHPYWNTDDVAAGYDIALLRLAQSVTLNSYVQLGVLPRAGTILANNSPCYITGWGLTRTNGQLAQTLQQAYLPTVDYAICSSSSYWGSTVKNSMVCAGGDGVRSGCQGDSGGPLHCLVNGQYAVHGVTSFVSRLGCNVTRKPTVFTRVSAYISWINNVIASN

The IC50 is the concentration at which inhibition is half-maximal. A lower IC50 goes with higher potency. As to `C/C=C1\NC(=O)[C@@H](NC(=O)[C@@H](NC(=O)[C@H](C)NC(=O)CCC)[C@@H](C)O)[C@@H](C)OC(=O)[C@H](C(C)C)NC(=O)[C@H](Cc2ccc(O)cc2)N(C)C(=O)[C@H](Cc2ccccc2)N2C(=O)[C@H](CC[C@H]2O)NC1=O` [MOLASSAMIDE], the IC50 in test [1] was found to be 234 nM; in test [2], 32 nM. In test [3], the inhibition entry was “inactive”.

These data come from ChEMBL document CHEMBL1154839, “Molassamide, a depsipeptide serine protease inhibitor from the marine cyanobacterium Dichothrix utahensis” (J Nat Prod, 2010).
